We go through three compounds from patent US8563741B2, “CDK inhibitors containing a zinc binding moiety” (Curis, Inc., priority 2007, dated 2013).

Some results are limits rather than exact numbers.

For orientation: IC50 means the midpoint of a concentration-inhibition curve. High values mean a need for much substance, low ones inhibition by little substance. By melting point is commonly meant the temperature of the solid-liquid transition.

The target in one series is T1, CDK1/cyclinB (Homo sapiens, UniProt P06493).
T1 construct: C-terminal 6His-tagged human full length cdk1 (MW=35 kDa); 6His (C); made in house; host or cells: Sf21 insect cells (baculovirus)
The experiment in a line: CDK activity assay with p33 ATP, CDK1/cyclinB. The format is biochemical. The note with it: 1 μM ATP. An excerpt:
CDK1/cyclinB (Accession Number for CDK1; GenBankNM_001786, for cyclinB; EMBL M25753):
C-terminal 6His-tagged human full length cdk1 (MW=35 kDa), and N-terminal GST-tagged human full length cyclin B (MW=75 kDa) were expressed individually with baculovirus system in Sf21 insect cells. Recombinant proteins were purified using Ni2+/NTA-agarose and GST-agarose, respectively. The cdk1 was then activated using CAK and repurified by Q Sepharose and Ni2+/NTA-agarose. They were then mixed in vitro to form protein complex. The purity of these protein complex was estimated to be 80.5% by SDSPAGE and Coomassie blue staining. Specific Activity of recombinant enzyme was measyre to be 1329 U/mg, where one unit of cdk1/cyclinB activity is defined as 1 nmol phosphate incorporated into 0.1 mg/ml histone H1 per minute at 30° C. with a final ATP concentration of […]. Enzyme was stored at concentration of 0.1 mg/ml in 50 mM Tris/HCl pH7.5, 150 mM NaCl, 0.1 mM EGTA, 0.03% Brij-35, 270 mM sucrose, 1 mM benzamidine, 0.2 mM PMSF, 0.1% 2-mercaptoethanol.

A further series has as its target CDK7/cyclinH1/MNAT1 (Homo sapiens, UniProt P50613). Briefly: CDK activity assay with p33 ATP, CDK7/cyclinH1/MNAT1.
Series [1] has as its system A375 Melanoma xenograft tumors. Briefly: Anti-tumor activity in the A375 Melanoma nude mouse xenograft model. The format is in vivo. The note with it: 60 mg/Kg ip daily in 30% CAPTISOL
As for the experimental part: FIG. 1 is a graph of tumor size versus time for mice bearing A375 Melanoma xenograft tumors receiving either 60 mg/Kg compound 8 in 30% CAPTISOL iv daily or vehicle only.
(c) An In Vivo Study of the Anti-Tumor Activity of Compound 8 in 30% CAPTISOL in the A375 Melanoma Nude Mouse Xenograft Model
Mice were divided into two groups of 5 to 6 mice each. Tumor volumes at the commencement of treatment were 560±230 mm^3. Compound 8 in 30% CAPTISOL was administered daily (60 mg/Kg ip) to one group of animals, while the second group of animals received an equal volume of vehicle.

Series [2] relates to HL60 AML xenograft tumors. Briefly: Anti-tumor activity in the HM60 AML nude mouse xenograft model. The format is in vivo. The following applies: for tumor growth (in words): compound 8 30 mg/Kg, compound 9 60 mg/Kg daily in 30% CAPTISOL
How it is done: FIG. 2 is a graph of tumor size versus time for mice bearing HL60 AML xenograft tumors receiving 30 mg/Kg compound 8 in 30% CAPTISOL iv daily, 60 mg/Kg compound 9 in 30% CAPTISOL iv daily or vehicle only.
(d) An In Vivo Study of the Anti-Tumor Activity of Compounds 8 and 9 in 30% CAPTISOL in the HM60 AML Nude Mouse Xenograft Model
Mice were divided into three groups of 4 mice each. Tumor volumes at the commencement of treatment were 157±56 mm^3. One group of mice received 30 mg/Kg compound 8 daily in 30% CAPTISOL, while a second group received 60 mg/Kg compound 9 in 30% CAPTISOL daily. The third group received an equivalent volume of vehicle daily.

In a further series the target is T2, CDK4/cyclinD1 (Homo sapiens, UniProt P11802).
T2 construct: Recombinant Human Full-length GST-tagged CDK-4 (MW=61.8 kDa) and cyclinD1 (MW=61.2 kDa); GST; made in house; host or cells: insect cells
The experiment in a line: CDK activity assay with p33 ATP, CDK4/cyclinD1. The format is biochemical. The following applies: 1 μM ATP. As for the experimental part: Recombinant Human Full-length GST-tagged CDK-4 (MW=61.8 kDa) and cyclinD1 (MW=61.2 kDa) were expressed in insect cells. […] Activity was determined at a final protein concentration at 8.33 μg/mL.
RBC-CTF (Substrate for CDK4):
Human RB protein (S773-K928, MW=44.46 kDa), N-terminal GST-tagged was purified and followed with a factor Xa cleavage, which was performed in 4 mM concentration of glutathione, Purified protein was stocked at a concentration of 0.67 mg/ml.
2 nM CDK4/cyclinD1 and 1 μM RB-CTF were mixed in the reaction buffer with final concentration of 1 μM ATP and 1% DMSO.

The target of another series is T3, CDK2/cyclinE (Homo sapiens, UniProt P24941).
T3 construct: C-terminal 6His-tagged, recombinant full-length CDK2 (MW=34 kDa); 6His (C); made in house; host or cells: Sf21 cells (baculovirus)
Briefly: CDK activity assay with p33 ATP, CDK2/cyclinE. The format is biochemical. The following applies: 1 μM ATP. How it is done: CDK2/cyclinE (Accession Number for CDK2; EMBL M68520, for cyclinE1; GenBank NM_001238):
C-terminal 6His-tagged, recombinant full-length CDK2 (MW=34 kDa) in complex with N-terminal GST-tagged, recombinant full-length cyclinE1 (MW=74 kDa) were expressed with baculovirus system in Sf21 cells. Recombinant proteins were purified using Ni2+/NTA agarose and the purity of recombinant protein complex was measured to be around 76% by SDS-PAGE and Coomassie blue staining. Specific Activity of recombinant CDK2/cyclinE was 1336 U/mg, where one unit of CDK2/cylinE1 activity is defined as 1 nmol phosphate incorporated into 0.1 mg/ml histone H1 per minute at 30° C. with a final ATP concentration of 100 μM. Enzyme was stored with concentration of 0.1 mg/ml in 50 mM Tris/HCl pH 7.5, 150 mM NaCl, 0.03% Brij-35, 0.1 mM EGTA, 0.2 mM PMSF, 1 mM benzamidine, 0.1% 2-mercaptoethanol, 270 mM sucrose.

The subject of series [3] is OPM2 Multiple Myeloma xenograft tumors. The experiment in a line: Anti-tumor activity in the OPM2 Multiple Myeloma nude mouse xenograft model. The format is in vivo. The following applies: 60 mg/Kg iv daily in 30% CAPTISOL
As for the experimental part: FIG. 3 is a graph of tumor size versus time for mice bearing OPM2 Multiple Myeloma xenograft tumors receiving either 60 mg/Kg compound 9 in 30% CAPTISOL iv daily or vehicle only.
(e) An In Vivo Study of the Anti-Tumor Activity of Compound 9 in 30% CAPTISOL in the OPM2 Multiple Myeloma Nude Mouse Xenograft Model
Mice were divided into two groups of 7 mice each. Treatment began when the tumor sizes were 276±46 mm^3. Compound 9 in 30% CAPTISOL was administered to the animals daily at 60 mg/Kg iv.

T1 sequence (P06493 whole entry): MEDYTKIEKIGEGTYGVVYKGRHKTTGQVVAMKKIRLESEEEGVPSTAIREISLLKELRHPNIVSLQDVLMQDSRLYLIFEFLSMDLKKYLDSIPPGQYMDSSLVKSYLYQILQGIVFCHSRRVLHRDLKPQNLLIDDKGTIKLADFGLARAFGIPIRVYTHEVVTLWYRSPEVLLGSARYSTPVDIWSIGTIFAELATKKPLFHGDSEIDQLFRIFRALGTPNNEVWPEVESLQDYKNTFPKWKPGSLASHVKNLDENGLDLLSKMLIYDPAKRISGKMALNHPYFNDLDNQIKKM
T1 sequence (P14635 whole entry partner): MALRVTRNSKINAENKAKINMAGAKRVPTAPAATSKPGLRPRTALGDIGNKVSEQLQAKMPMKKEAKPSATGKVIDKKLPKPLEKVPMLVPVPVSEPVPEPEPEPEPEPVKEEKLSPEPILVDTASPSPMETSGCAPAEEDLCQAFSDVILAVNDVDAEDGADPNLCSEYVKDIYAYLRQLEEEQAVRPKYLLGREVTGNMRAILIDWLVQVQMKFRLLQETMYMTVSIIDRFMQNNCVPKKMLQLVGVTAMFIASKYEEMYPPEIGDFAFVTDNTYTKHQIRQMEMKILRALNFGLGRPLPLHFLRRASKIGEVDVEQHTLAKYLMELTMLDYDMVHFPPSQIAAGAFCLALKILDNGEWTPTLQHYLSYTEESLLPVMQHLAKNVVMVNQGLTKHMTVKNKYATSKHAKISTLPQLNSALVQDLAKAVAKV
T2 sequence (P11802 whole entry): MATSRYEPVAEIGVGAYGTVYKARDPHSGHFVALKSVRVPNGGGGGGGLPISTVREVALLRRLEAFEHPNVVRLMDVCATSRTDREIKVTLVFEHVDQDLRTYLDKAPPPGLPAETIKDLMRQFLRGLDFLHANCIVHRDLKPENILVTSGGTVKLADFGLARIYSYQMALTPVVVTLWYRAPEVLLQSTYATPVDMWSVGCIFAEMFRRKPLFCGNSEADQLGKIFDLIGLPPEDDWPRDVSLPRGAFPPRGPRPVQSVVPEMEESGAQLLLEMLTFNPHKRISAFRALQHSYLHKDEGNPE
T2 sequence (P24385 whole entry partner): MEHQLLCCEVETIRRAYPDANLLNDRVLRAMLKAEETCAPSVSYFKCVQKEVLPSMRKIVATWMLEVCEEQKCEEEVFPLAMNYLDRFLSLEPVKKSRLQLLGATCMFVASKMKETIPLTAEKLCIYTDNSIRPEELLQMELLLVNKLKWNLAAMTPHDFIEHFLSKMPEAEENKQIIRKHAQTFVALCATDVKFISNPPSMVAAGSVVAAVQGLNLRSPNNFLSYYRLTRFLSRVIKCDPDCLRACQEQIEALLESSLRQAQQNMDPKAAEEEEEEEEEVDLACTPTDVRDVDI
Chain of CDK7/cyclinH1/MNAT1 (P50613 whole entry): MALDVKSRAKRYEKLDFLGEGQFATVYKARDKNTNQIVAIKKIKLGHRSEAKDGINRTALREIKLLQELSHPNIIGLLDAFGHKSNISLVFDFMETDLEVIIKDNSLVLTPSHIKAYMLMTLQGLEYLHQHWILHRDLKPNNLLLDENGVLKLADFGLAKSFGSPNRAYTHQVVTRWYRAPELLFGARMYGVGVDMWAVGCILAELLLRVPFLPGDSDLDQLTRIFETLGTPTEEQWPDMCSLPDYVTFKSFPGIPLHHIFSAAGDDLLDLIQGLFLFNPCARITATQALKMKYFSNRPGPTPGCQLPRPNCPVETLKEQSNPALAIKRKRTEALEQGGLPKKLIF
Chain of CDK7/cyclinH1/MNAT1 (P51946 whole entry partner): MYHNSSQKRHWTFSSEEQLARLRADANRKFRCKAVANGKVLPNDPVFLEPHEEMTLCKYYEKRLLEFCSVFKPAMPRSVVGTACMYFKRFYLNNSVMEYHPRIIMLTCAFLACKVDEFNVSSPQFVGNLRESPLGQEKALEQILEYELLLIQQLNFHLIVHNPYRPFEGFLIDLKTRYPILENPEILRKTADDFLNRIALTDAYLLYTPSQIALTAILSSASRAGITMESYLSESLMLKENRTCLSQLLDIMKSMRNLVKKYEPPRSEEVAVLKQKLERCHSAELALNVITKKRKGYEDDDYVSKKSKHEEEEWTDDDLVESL
Chain of CDK7/cyclinH1/MNAT1 (P51948 whole entry partner): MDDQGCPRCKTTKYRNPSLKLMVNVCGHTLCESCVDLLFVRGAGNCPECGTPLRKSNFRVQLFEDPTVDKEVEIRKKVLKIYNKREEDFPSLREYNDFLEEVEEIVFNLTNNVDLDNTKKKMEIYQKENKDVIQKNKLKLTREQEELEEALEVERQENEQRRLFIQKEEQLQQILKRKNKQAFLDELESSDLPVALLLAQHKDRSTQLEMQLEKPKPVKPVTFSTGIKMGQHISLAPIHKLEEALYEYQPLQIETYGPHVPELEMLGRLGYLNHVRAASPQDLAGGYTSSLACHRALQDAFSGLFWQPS
Experimental for CDK7/cyclinH1/MNAT1: Recombinant Human Full-Length protein, Histidine-tagged CDK7 (MW=43.2 kDa), Histidine-tagged cyclin H1 (MW=42.6 kDa), Histidine-tagged MNAT1 (MW=40.5 kDa), were expressed in insect cells.
For CDK activity assay, p33 ATP tracers were incubated with purified recombinant specific combination of purified CDK kinases, cyclins and substrates to monitor the enzyme activity. In these assays, individual reactions were carried out in specific conditions describe below with reaction buffer: 20 mM HEPES (pH 7.5), 10 mM MgCl2, 1 mM EGTA, 0.02% Brij 35, 0.02 mg/ml BSA, 0.1 mM Na3VO4, 2 mM DTT. […] Precipitated proteins were trapped onto glass fiber B filterplates and excess unlabeled p33 ATP was washed off. The plates were allowed to air-dry prior to the addition of 30 uL/well of Packard Microscint 20. The amount of incorporated isotope was measured using a Perkin Elmer TopCount plate reader. […] IC50 was calculated using Prism software with sigmoidal dose-response curve fitting.
100 nM CDK7/cyclinH1/MNAT1 and 20 μM Histon H1 were mixed in the reaction buffer with 1 μM ATP and 1% DMSO.

`CC(C)(C)c1cnc(CSc2cnc(NC(=O)CCCCCCC(=O)NO)s2)o1` [Compound 8, N^1-(5-((5-tert-butyloxazol-2-yl)methylthio)thiazol-2-yl)-N^8-hydroxyoctanediamide]: the half-maximal inhibitory concentration (IC50) was less than 100 nM against CDK1/cyclinB, 100 to 1000 nM against CDK7/cyclinH1/MNAT1, 100 to 1000 nM at CDK4/cyclinD1 and less than 100 nM at CDK2/cyclinE. In addition, the “tumor growth (in words)” value in series [1] and in series [2] was “able to attenuate tumor growth” in each case. The “increase in tumor size” value in series [1] (after 10 days, vehicle about 130% increase) is 50%; in series [2] (30 mg/Kg daily in 30% CAPTISOL, after 10 days, vehicle about 230% change), approximately 90%.
Take `CC(C)(C)c1cnc(CSc2cnc(NC(=O)Cc3ccc(OCCCC(=O)NO)cc3)s2)o1` [Compound 9, 4-(4-(2-(5-((5-tert-butyloxazol-2-yl)methylthio)thiazol-2-ylamino)-2-oxoethyl)phenoxy)-N-hydroxybutanamide]: the IC50 at CDK1/cyclinB was less than 100 nM; against CDK7/cyclinH1/MNAT1, 100 to 1000 nM; against CDK4/cyclinD1 it was less than 100 nM; on CDK2/cyclinE it was less than 100 nM. Besides, the “tumor growth (in words)” value in series [3] and in series [2] was “able to attenuate tumor growth” throughout. Further, the “increase in tumor size” value in series [3] (after 10 days, vehicle about 450% increase) is recorded as approximately 50%. Besides, the “decrease in tumor size” value in series [2] (60 mg/Kg daily in 30% CAPTISOL, after 10 days, vehicle about 230% change) was “about 50%”.
In turn, `CC(C)(C)c1cnc(CSc2cnc(NC(=O)C3CCN(c4ncc(C(=O)NO)cn4)CC3)s2)o1` [Compound 20, 2-(4-(5-((5-tert-butyloxazol-2-yl)methylthio)thiazol-2-ylcarbamoyl)piperidin-1-yl)-N-hydroxypyrimidine-5-carboxamide] had a melting point of 181 to 183 °C. This compound also gave an IC50 at CDK1/cyclinB of less than 100 nM. Also, the IC50 on CDK7/cyclinH1/MNAT1 is 1000 to 10000 nM. Besides, the IC50 on CDK4/cyclinD1 was 100 to 1000 nM. Moreover, on CDK2/cyclinE, the IC50 was less than 100 nM.
